Measurements reported in patent US8784824B2, “Compositions and methods for treatment of angiogenesis in pathological lesions” (Philogen S.p.A., priority 2000, dated 2014).

What was measured:
tumor cells = experiment: Block of tumor cell proliferation by L19-IFN-γ fusion proteins; assay type: cell-based; details: typical IFN-γ-dependent fashion
[1] = molecular target: T1, ED-B domain of fibronectin (Homo sapiens, UniProt P02751); experiment: Binding of L19-IFN-γ fusion proteins to ED-B (ELISA, BIAcore)
[2] = test system: C51 murine carcinoma cell line; experiment: Crystal violet cytotoxicity assay; assay type: cell-based; details: Mus musculus; C51 cells; crystal violet staining (FIG. 9); read-out: 50% inhibitory concentrations towards C51 cells
Method: C51 murine adenocarcinoma cells were seeded in 24-well plates at a density between […] per well. The plates were incubated overnight at 37° C. in humidified, 5% CO2 atmosphere to ensure the growth of the monolayer. The medium was then removed and different concentrations of doxorubicin was added. Relative cell numbers in treated and control plates were determined by crystal violet staining. Quantification is possible by solubilising the absorbed dye in ethanol 70% and determining optical density at 590 nm where absorbance is directly proportional to cell number. Relative cell number can be expressed as T/C=T−C0/C−C0×100 [T=absorbance of treated cultures, C=absorbance of control cultures, and C0=absorbance of cultures at the start of incubation (t=0)]. The results of this study are depicted in FIG. 9.

[3] = intravenously injected; cited from earlier work
[4] = test system: subcutaneously implanted F9 murine teratocarcinoma; experiment: Biodistribution of radioiodinated scFv(L19)-TF; assay type: in vivo, mouse; details: injected intravenously, quantitative biodistribution (FIG. 3)
Method: The in vivo targeting performance was analysed by biodistribution analysis as described in Tarli et al. (1999). Briefly, purified scFv(L19)-TF fusion protein was radioiodinated and injected into nude mice with subcutaneously implanted F9 murine teratocarcinoma. Mice were sacrificed at 24 hours after injection. The organs were weighed and the radioactivity counted. Targeting results of representative organs are expressed as percent of the injected dose per gram of tissue (% ID/g).

[5] = test system: F9 murine teratocarcinoma, C51 murine carcinoma or FE8 tumors; experiment: Tumor infarction after scFv-TF injection in tumor bearing mice; assay type: in vivo, mouse; details: few hours after injection
Method: The antitumor activity of scFv(L19)-TF and scFv(D1.3)-TF was tested in mice bearing the F9 murine teratocarcinoma, the C51 murine carcinoma or FE8 tumors (derived from subcutaneously implanted ras-transformed rat fibroblasts). Experiments were performed both in mice bearing small tumors and in mice bearing very large tumors.
(§1) Tumor bearing mice were obtained by subcutaneous injection of 10^6 of FE8 rat fibroblast, C51 colon carcinoma or F9 teratocarcinoma cells (Tarli et al., 1999). The cells were allowed to grow until the tumoral volume could be measured by a slide-calliper.

[6] = molecular target: T1, ED-B domain of fibronectin; experiment: Antigen binding assays of scFv(L19)-TF (ELISA, BIAcore, antigen column)
Method: The immunoreactivity of the scFv-TF fusion protein was analyzed by ELISA immunoassay, by BIAcore and by affinity chromatography on antigen column, as described (Neri et al., 1996; D. Neri et al. (1997) Nature Biotechnology, 15, 1271-1275.; Tarli et al., 1999).

[7] = test system: FE8 tumors (ras-transformed rat fibroblasts); experiment: In vivo treatment with scFv-TF fusion protein, FE8 tumors; set-up: species or system mouse; details: large FE8 tumors; one injection of 20 μg (FIG. 7)
Method: as §1
(§2) Mice with tumors of volume ca 1500 mm^3 were injected with a single dose of with 20 ug scFv-TF fusion protein corresponding to 10 ug TF in 200 ul saline. The injection was not repeated. Mice were monitored by tumor volume, weight and appearance including photographic documentation.

C51 murine carcinoma = experiment: In vivo treatment with scFv-TF fusion protein, C51 tumors; set-up: species or system mouse
Method: as §1
(§3) Mice with tumors of volume ca 200-300 mm^3 were injected with 20 ug scFv-TF fusion protein corresponding to 10 ug TF in 200 ul saline. The injection was repeated after 48 and 96 hours. Mice were monitored by tumor volume, weight and appearance including photographic documentation.
as §2

[8] = test system: F9 murine teratocarcinoma; experiment: In vivo treatment with scFv-TF fusion protein, F9 tumors; set-up: species or system mouse; details: small F9 tumors; three injections of 20 μg (FIG. 4)
Method: as §1, §3

FXa = experiment: Enzymatic activity of TF moiety, Spectrozyme FXa assay; assay type: biochemical; details: method of Ruf et al
Method: The enzymatic activity of the scFv-TF fusion protein was analyzed using the Spectrozyme FXa assay (American Diagnostica, Pfungstadt, Germany) as described by Ruf et al (1991).

[9] = molecular target: recombinant human fibronectin fragment 7B89 (human) (UniProt P02751); experiment: 125I-labelled protein on a 7B89/Sepharose column
Chain of recombinant human fibronectin fragment 7B89 (human) (P02751 1173-1537 limits assumed): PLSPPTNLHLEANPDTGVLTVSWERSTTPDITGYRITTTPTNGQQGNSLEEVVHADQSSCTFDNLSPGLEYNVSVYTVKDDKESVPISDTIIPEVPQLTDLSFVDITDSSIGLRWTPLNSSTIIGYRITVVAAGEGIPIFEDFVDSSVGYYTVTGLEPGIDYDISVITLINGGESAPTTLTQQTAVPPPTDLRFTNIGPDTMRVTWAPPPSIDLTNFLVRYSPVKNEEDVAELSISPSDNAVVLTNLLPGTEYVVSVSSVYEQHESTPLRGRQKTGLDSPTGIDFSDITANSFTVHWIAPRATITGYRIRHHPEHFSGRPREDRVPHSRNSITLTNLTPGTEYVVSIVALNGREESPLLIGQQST

T1 sequence (P02751 1271-1359 limits assumed): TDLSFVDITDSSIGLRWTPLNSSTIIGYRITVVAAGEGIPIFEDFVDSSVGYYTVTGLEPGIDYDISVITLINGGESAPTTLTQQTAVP

## scFv(L19)-(IFN-γ)2: IFN-γ homodimer (two IFN-γ joined by a polypeptide linker) fused at the C-terminal extremity of scFv(L19)
Tumor cells
  block of proliferation of tumor cells: block the proliferation of tumor cells
[1]
  binding to the ED-B domain of fibronectin: strong binding

## COc1cccc2c1C(=O)c1c(O)c3c(c(O)c1C2=O)C[C@@](O)(C(=O)CO)C[C@@H]3O[C@H]1C[C@H](N)[C@H](O)[C@H](C)O1 [doxorubicin, Doxorubicin]
[2]
  IC50: ~100 nM
[3]
  maximal tolerated dose: 8 mg/kg

## scFv(L19)-TF: scFv(L19) specific for ED-B domain of fibronectin genetically fused to truncated tissue factor
[4]
  ability to target solid tumors: target solid tumors
[5]
  tumor infarction: rapid and extensive tumor infarction
[6]
  activity of the antibody moiety: active
[7]
  antitumor effect on tumor growth: stopped tumor growth
C51 murine carcinoma; large C51 tumors, one injection of 20 μg (FIG. 6)
  antitumor effect on tumor growth: stopped tumor growth
C51 murine carcinoma; small C51 tumors, three injections of 20 μg (FIG. 5)
  reduction of growth rate: approx. 50%
[8]
  reduction of growth rate: approx. 50%
FXa
  activity of the TF moiety: active

## scFv(L19)-IFN-γ: IFN-γ monomer fused at the C-terminal extremity of scFv(L19)
Tumor cells
  block of proliferation of tumor cells: block the proliferation of tumor cells
[1]
  binding to the ED-B domain of fibronectin: bind with high-affinity

## L19-IL2 fusion protein (from UniProt P60568 21-153)
[9]
  immunoreactive fraction: > 90%
